Tested on: maternal HIV+ sera (antibodies)
Test: RIA / ELISA binding of maternal HIV+ sera to gp120 and gp41 peptides (Example 3)
Set-up: species or system human
How it was run: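 Peptides were coated at 10 μg/ml in carbonate buffer pH 9.6 and blocked with 1% BSA. Sera at 1:50 and 1:500 were incubated overnight at 4°C and detected with ¹²⁵I anti-human IgG (RIA) or HRP/TMB at OD450 (ELISA). Specific binding was taken as peptide minus no-peptide wells, scored as a ratio to normal human serum.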

[1] = Serum No. 1, Non-Transmission Group
[2] = Serum No. 2, Non-Transmission Group
[3] = Serum No. 3, Non-Transmission Group
[4] = Serum No. 4, Transmission Group
[5] = Serum No. 5, Transmission Group
[6] = Serum No. 6, Non-Transmission Group
[7] = Serum No. 7, Non-Transmission Group
[8] = Serum No. 8, Non-Transmission Group
[9] = Serum No. 9, Non-Transmission Group
[10] = Serum No. 10, Transmission Group
[11] = Serum No. 11, Non-Transmission Group
[12] = Serum No. 12, Non-Transmission Group
[13] = Serum No. 13, Transmission Group
[14] = Serum No. 14, Transmission Group
[15] = Serum No. 15, Transmission Group
[16] = Serum No. 16, Non-Transmission Group
[17] = Serum No. 17, Non-Transmission Group
[18] = Serum No. 18, Non-Transmission Group
[19] = Serum No. 19, Transmission Group
[20] = Serum No. 20, Non-Transmission Group

Sequence: ASWSNKSLEQIWNNM [Peptide 36]
- Binding of maternal HIV+ serum to peptide (sera/NHS ratio) [1]: - (specific OD450 or cpm of sera sample binding to peptide divided by the specific OD450 or cpm of NHS sample binding to peptide, which value is less than 2)
- Binding of maternal HIV+ serum to peptide (sera/NHS ratio) [2]: - (specific OD450 or cpm of sera sample binding to peptide divided by the specific OD450 or cpm of NHS sample binding to peptide, which value is less than 2)
- Binding of maternal HIV+ serum to peptide (sera/NHS ratio) [3]: - (specific OD450 or cpm of sera sample binding to peptide divided by the specific OD450 or cpm of NHS sample binding to peptide, which value is less than 2)
- Binding of maternal HIV+ serum to peptide (sera/NHS ratio) [4]: - (specific OD450 or cpm of sera sample binding to peptide divided by the specific OD450 or cpm of NHS sample binding to peptide, which value is less than 2)
- Binding of maternal HIV+ serum to peptide (sera/NHS ratio) [5]: - (specific OD450 or cpm of sera sample binding to peptide divided by the specific OD450 or cpm of NHS sample binding to peptide, which value is less than 2)
- Binding of maternal HIV+ serum to peptide (sera/NHS ratio) [6]: - (specific OD450 or cpm of sera sample binding to peptide divided by the specific OD450 or cpm of NHS sample binding to peptide, which value is less than 2)
- Binding of maternal HIV+ serum to peptide (sera/NHS ratio) [7]: - (specific OD450 or cpm of sera sample binding to peptide divided by the specific OD450 or cpm of NHS sample binding to peptide, which value is less than 2)
- Binding of maternal HIV+ serum to peptide (sera/NHS ratio) [8]: - (specific OD450 or cpm of sera sample binding to peptide divided by the specific OD450 or cpm of NHS sample binding to peptide, which value is less than 2)
- Binding of maternal HIV+ serum to peptide (sera/NHS ratio) [9]: - (specific OD450 or cpm of sera sample binding to peptide divided by the specific OD450 or cpm of NHS sample binding to peptide, which value is less than 2)
- Binding of maternal HIV+ serum to peptide (sera/NHS ratio) [10]: - (specific OD450 or cpm of sera sample binding to peptide divided by the specific OD450 or cpm of NHS sample binding to peptide, which value is less than 2)
- Binding of maternal HIV+ serum to peptide (sera/NHS ratio) [11]: - (specific OD450 or cpm of sera sample binding to peptide divided by the specific OD450 or cpm of NHS sample binding to peptide, which value is less than 2)
- Binding of maternal HIV+ serum to peptide (sera/NHS ratio) [12]: - (specific OD450 or cpm of sera sample binding to peptide divided by the specific OD450 or cpm of NHS sample binding to peptide, which value is less than 2)
- Binding of maternal HIV+ serum to peptide (sera/NHS ratio) [13]: - (specific OD450 or cpm of sera sample binding to peptide divided by the specific OD450 or cpm of NHS sample binding to peptide, which value is less than 2)
- Binding of maternal HIV+ serum to peptide (sera/NHS ratio) [14]: - (specific OD450 or cpm of sera sample binding to peptide divided by the specific OD450 or cpm of NHS sample binding to peptide, which value is less than 2)
- Binding of maternal HIV+ serum to peptide (sera/NHS ratio) [15]: - (specific OD450 or cpm of sera sample binding to peptide divided by the specific OD450 or cpm of NHS sample binding to peptide, which value is less than 2)
- Binding of maternal HIV+ serum to peptide (sera/NHS ratio) [16]: - (specific OD450 or cpm of sera sample binding to peptide divided by the specific OD450 or cpm of NHS sample binding to peptide, which value is less than 2)
- Binding of maternal HIV+ serum to peptide (sera/NHS ratio) [17]: - (specific OD450 or cpm of sera sample binding to peptide divided by the specific OD450 or cpm of NHS sample binding to peptide, which value is less than 2)
- Binding of maternal HIV+ serum to peptide (sera/NHS ratio) [18]: - (specific OD450 or cpm of sera sample binding to peptide divided by the specific OD450 or cpm of NHS sample binding to peptide, which value is less than 2)
- Binding of maternal HIV+ serum to peptide (sera/NHS ratio) [19]: - (specific OD450 or cpm of sera sample binding to peptide divided by the specific OD450 or cpm of NHS sample binding to peptide, which value is less than 2)
- Binding of maternal HIV+ serum to peptide (sera/NHS ratio) [20]: - (specific OD450 or cpm of sera sample binding to peptide divided by the specific OD450 or cpm of NHS sample binding to peptide, which value is less than 2)

Sequence: ATEKLWVTVYYGVPVWLEATTTL [Peptide 60]
- Binding of maternal sera to peptide (in words) (Example 3): No binding
- Binding of maternal HIV+ serum to peptide (sera/NHS ratio) [1]: - (specific OD450 or cpm of sera sample binding to peptide divided by the specific OD450 or cpm of NHS sample binding to peptide, which value is less than 2)
- Binding of maternal HIV+ serum to peptide (sera/NHS ratio) [2]: - (specific OD450 or cpm of sera sample binding to peptide divided by the specific OD450 or cpm of NHS sample binding to peptide, which value is less than 2)
- Binding of maternal HIV+ serum to peptide (sera/NHS ratio) [3]: - (specific OD450 or cpm of sera sample binding to peptide divided by the specific OD450 or cpm of NHS sample binding to peptide, which value is less than 2)
- Binding of maternal HIV+ serum to peptide (sera/NHS ratio) [4]: - (specific OD450 or cpm of sera sample binding to peptide divided by the specific OD450 or cpm of NHS sample binding to peptide, which value is less than 2)
- Binding of maternal HIV+ serum to peptide (sera/NHS ratio) [5]: - (specific OD450 or cpm of sera sample binding to peptide divided by the specific OD450 or cpm of NHS sample binding to peptide, which value is less than 2)
- Binding of maternal HIV+ serum to peptide (sera/NHS ratio) [6]: - (specific OD450 or cpm of sera sample binding to peptide divided by the specific OD450 or cpm of NHS sample binding to peptide, which value is less than 2)
- Binding of maternal HIV+ serum to peptide (sera/NHS ratio) [7]: - (specific OD450 or cpm of sera sample binding to peptide divided by the specific OD450 or cpm of NHS sample binding to peptide, which value is less than 2)
- Binding of maternal HIV+ serum to peptide (sera/NHS ratio) [8]: - (specific OD450 or cpm of sera sample binding to peptide divided by the specific OD450 or cpm of NHS sample binding to peptide, which value is less than 2)
- Binding of maternal HIV+ serum to peptide (sera/NHS ratio) [9]: - (specific OD450 or cpm of sera sample binding to peptide divided by the specific OD450 or cpm of NHS sample binding to peptide, which value is less than 2)
- Binding of maternal HIV+ serum to peptide (sera/NHS ratio) [10]: - (specific OD450 or cpm of sera sample binding to peptide divided by the specific OD450 or cpm of NHS sample binding to peptide, which value is less than 2)
- Binding of maternal HIV+ serum to peptide (sera/NHS ratio) [11]: - (specific OD450 or cpm of sera sample binding to peptide divided by the specific OD450 or cpm of NHS sample binding to peptide, which value is less than 2)
- Binding of maternal HIV+ serum to peptide (sera/NHS ratio) [12]: - (specific OD450 or cpm of sera sample binding to peptide divided by the specific OD450 or cpm of NHS sample binding to peptide, which value is less than 2)
- Binding of maternal HIV+ serum to peptide (sera/NHS ratio) [13]: - (specific OD450 or cpm of sera sample binding to peptide divided by the specific OD450 or cpm of NHS sample binding to peptide, which value is less than 2)
- Binding of maternal HIV+ serum to peptide (sera/NHS ratio) [14]: - (specific OD450 or cpm of sera sample binding to peptide divided by the specific OD450 or cpm of NHS sample binding to peptide, which value is less than 2)
- Binding of maternal HIV+ serum to peptide (sera/NHS ratio) [15]: - (specific OD450 or cpm of sera sample binding to peptide divided by the specific OD450 or cpm of NHS sample binding to peptide, which value is less than 2)
- Binding of maternal HIV+ serum to peptide (sera/NHS ratio) [16]: - (specific OD450 or cpm of sera sample binding to peptide divided by the specific OD450 or cpm of NHS sample binding to peptide, which value is less than 2)
- Binding of maternal HIV+ serum to peptide (sera/NHS ratio) [17]: - (specific OD450 or cpm of sera sample binding to peptide divided by the specific OD450 or cpm of NHS sample binding to peptide, which value is less than 2)
- Binding of maternal HIV+ serum to peptide (sera/NHS ratio) [18]: - (specific OD450 or cpm of sera sample binding to peptide divided by the specific OD450 or cpm of NHS sample binding to peptide, which value is less than 2)
- Binding of maternal HIV+ serum to peptide (sera/NHS ratio) [19]: - (specific OD450 or cpm of sera sample binding to peptide divided by the specific OD450 or cpm of NHS sample binding to peptide, which value is less than 2)
- Binding of maternal HIV+ serum to peptide (sera/NHS ratio) [20]: - (specific OD450 or cpm of sera sample binding to peptide divided by the specific OD450 or cpm of NHS sample binding to peptide, which value is less than 2)
